We go through 22 compounds from patent publication US9273057B2 (Bristol-Myers Squibb Company, priority 2012, dated 2016).

Structures are written as SMILES. Structures can show the parent of a compound that is named as a salt.

The assay deals with CK2A1 (CK2α/β) (Homo sapiens, UniProt P68400). Put plainly: CK2 kinase assay, CK2A1 (CK2α/β). The format is biochemical. The following applies: Table A; read-out: CK2A1 (CK2α/β) (IC50).
CK2A1 (CK2α/β), sequence (P68400 whole entry, species assumed): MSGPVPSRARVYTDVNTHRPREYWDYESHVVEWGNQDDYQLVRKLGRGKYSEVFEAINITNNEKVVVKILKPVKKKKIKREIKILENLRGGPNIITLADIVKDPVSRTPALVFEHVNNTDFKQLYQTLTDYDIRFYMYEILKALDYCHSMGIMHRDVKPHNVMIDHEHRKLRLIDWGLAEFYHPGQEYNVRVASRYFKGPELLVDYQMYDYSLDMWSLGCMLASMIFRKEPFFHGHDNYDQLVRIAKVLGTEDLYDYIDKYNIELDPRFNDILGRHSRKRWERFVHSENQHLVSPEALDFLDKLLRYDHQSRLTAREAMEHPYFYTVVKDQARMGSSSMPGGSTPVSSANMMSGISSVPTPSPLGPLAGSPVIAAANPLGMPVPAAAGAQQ
CK2A1 (CK2α/β), sequence (P67870 whole entry partner, species assumed): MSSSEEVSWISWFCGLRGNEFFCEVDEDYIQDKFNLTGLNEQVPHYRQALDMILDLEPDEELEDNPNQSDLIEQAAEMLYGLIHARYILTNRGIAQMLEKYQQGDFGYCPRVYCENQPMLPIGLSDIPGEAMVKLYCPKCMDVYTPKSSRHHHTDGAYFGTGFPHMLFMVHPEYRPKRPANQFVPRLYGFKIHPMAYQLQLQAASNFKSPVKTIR
Turning to `CCN1CC2(CCN(c3cc(C#N)cc(Nc4nc(NC5CC5)c5ncc(C#N)n5n4)c3Cl)CC2)C1` [Example 801, 2-((2-chloro-5-cyano-3-(2-ethyl-2,7-diazaspiro[3.5]nonan-7-yl)phenyl)amino)-4-(cyclopropylamino)imidazo[2,1-f][1,2,4]triazine-7-carbonitrile], the IC50 was found to be 2.16 nM.
The value for `CC(C)(C(N)=O)N1CC2(CCN(c3cc(C#N)cc(Nc4nc(NC5CC5)c5ncc(C#N)n5n4)c3Cl)CC2)C1` [Example 803, 2-(7-(2-chloro-5-cyano-3-((7-cyano-4-(cyclopropylamino)imidazo[2,1-f][1,2,4]triazin-2-yl)amino)phenyl)-2,7-diazaspiro[3.5]nonan-2-yl)-2-methylpropanamide] was 2.8 nM.
The value for `N#Cc1cc(Nc2nc(NC3CC3)c3ncc(C#N)n3n2)c(Cl)c(N2CCC3(CC2)CN(CC(=O)N2CCNCC2)C3)c1` [Example 804] was 1.7 nM; that for `N#Cc1cc(Nc2nc(NC3CC3)c3ncc(C#N)n3n2)c(Cl)c(N2CCC3(CC2)CN(Cc2ccc[nH]c2=O)C3)c1` [Example 805, 2-((2-chloro-5-cyano-3-(2-((2-oxo-1,2-dihydropyridin-3-yl)methyl)-2,7-diazaspiro[3.5]nonan-7-yl)phenyl)amino)-4-(cyclopropylamino)imidazo[2,1-f][1,2,4]triazine-7-carbonitrile] was 5.35 nM; that for `CC(=O)N1CCC2(CC1)CN(c1cc(C#N)cc(Nc3nc(NC4CC4)c4ncc(C#N)n4n3)c1Cl)C2` [Example 806, 2-((3-(7-acetyl-2,7-diazaspiro[3.5]nonan-2-yl)-2-chloro-5-cyanophenyl)amino)-4-(cyclopropylamino)imidazo[2,1-f][1,2,4]triazine-7-carbonitrile] was 0.84 nM.
`CCNc1nc(Nc2cc(C#N)cc(N3CC[C@@H](NC(=O)OC)[C@H](OC(=O)[C@@H](N)CCCNC(=N)N)C3)c2Cl)nn2c(C#N)cnc12` [Example 808, (S)-(3R,4R)-1-(2-chloro-5-cyano-3-((7-cyano-4-(ethylamino)imidazo[2,1-f][1,2,4]triazin-2-yl)amino)phenyl)-4-((methoxycarbonyl)amino)piperidin-3-yl 2-amino-5-guanidinopentanoate trihydrochloride]: the IC50 is 0.44 nM.
The value for `CCNc1nc(Nc2cc(C#N)cc(N3CC[C@@H](NC(=O)OC)[C@H](OC(=O)[C@@H](N)Cc4cnc[nH]4)C3)c2Cl)nn2c(C#N)cnc12` [Example 809, (S)-(3R,4R)-1-(2-chloro-5-cyano-3-((7-cyano-4-(ethylamino)imidazo[2,1-f][1,2,4]triazin-2-yl)amino)phenyl)-4-((methoxycarbonyl)amino)piperidin-3-yl 2-amino-3-(1H-imidazol-5-yl)propanoate dihydrochloride] was 1 nM; that for `CCNc1nc(Nc2cc(C#N)cc(N3CC[C@@H](NC(=O)OC)[C@H](OC(=O)[C@@H](N)[C@@H](C)O)C3)c2Cl)nn2c(C#N)cnc12` [Example 810, (2S,3R)-(3R,4R)-1-(2-chloro-5-cyano-3-((7-cyano-4-(ethylamino)imidazo[2,1-f][1,2,4]triazin-2-yl)amino)phenyl)-4-((methoxycarbonyl)amino)piperidin-3-yl 2-amino-3-hydroxybutanoate hydrochloride] was 3.82 nM; that for `CCNc1nc(Nc2cc(C#N)cc(N3CC[C@@H](NC(=O)OC)[C@H](OC(=O)[C@@H](N)CCCN)C3)c2Cl)nn2c(C#N)cnc12` [Example 811, (S)-(3R,4R)-1-(2-chloro-5-cyano-3-((7-cyano-4-(ethylamino)imidazo[2,1-f][1,2,4]triazin-2-yl)amino)phenyl)-4-((methoxycarbonyl)amino)piperidin-3-yl 2,5-diaminopentanoate dihydrochloride] was 1.88 nM.
The value for `CCNc1nc(Nc2cc(C#N)cc(N3CC[C@@H](NC(=O)OC)[C@H](OC(=O)[C@@H](N)CCN)C3)c2Cl)nn2c(C#N)cnc12` [Example 812, (S)-(3R,4R)-1-(2-chloro-5-cyano-3-((7-cyano-4-(ethylamino)imidazo[2,1-f][1,2,4]triazin-2-yl)amino)phenyl)-4-((methoxycarbonyl)amino)piperidin-3-yl 2,4-diaminobutanoate dihydrochloride] was 4.61 nM; that for `CCNc1nc(Nc2cc(C#N)cc(N3CC[C@@H](NC(=O)OC)[C@H](OC(=O)[C@@H]4CCCN4)C3)c2Cl)nn2c(C#N)cnc12` [Example 813, (S)-(3R,4R)-1-(2-chloro-5-cyano-3-((7-cyano-4-(ethylamino)imidazo[2,1-f][1,2,4]triazin-2-yl)amino)phenyl)-4-((methoxycarbonyl)amino)piperidin-3-yl pyrrolidine-2-carboxylate hydrochloride] was 4.48 nM; that for `CCNc1nc(Nc2cc(C#N)cc(N3CC[C@@H](NC(=O)OC)[C@H](OC(=O)CC[C@H](N)C(=O)OC)C3)c2Cl)nn2c(C#N)cnc12` [Example 814, (S)-5-((3R,4R)-1-(2-chloro-5-cyano-3-((7-cyano-4-(ethylamino)imidazo[2,1-f][1,2,4]triazin-2-yl)amino)phenyl)-4-((methoxycarbonyl)amino)piperidin-3-yl) 1-methyl 2-aminopentanedioate hydrochloride] was 24.9 nM.
To `CCNc1nc(Nc2cc(C#N)cc(N3CC[C@@H](NC(=O)OC)[C@H](OC(=O)C[C@H](N)C(=O)OC(C)(C)C)C3)c2Cl)nn2c(C#N)cnc12` [Example 815, (S)-1-tert-butyl 4-((3R,4R)-1-(2-chloro-5-cyano-3-((7-cyano-4-(ethylamino)imidazo[2,1-f][1,2,4]triazin-2-yl)amino)phenyl)-4-((methoxycarbonyl)amino)piperidin-3-yl) 2-aminosuccinate hydrochloride] belongs 18.7 nM.
On to `CCNc1nc(Nc2cc(C#N)cc(N3CC[C@@H](NC(=O)OC)[C@H](OC(=O)CCCCN)C3)c2Cl)nn2c(C#N)cnc12` [Example 816, (3R,4R)-1-(2-chloro-5-cyano-3-((7-cyano-4-(ethylamino)imidazo[2,1-f][1,2,4]triazin-2-yl)amino)phenyl)-4-((methoxycarbonyl)amino)piperidin-3-yl 5-aminopentanoate hydrochloride], for which the IC50 was 5.2 nM.
To `CCNc1nc(Nc2cc(C#N)cc(N3CC[C@@H](NC(=O)OC)[C@H](OC(=O)CCCN)C3)c2Cl)nn2c(C#N)cnc12` [Example 817, (3R,4R)-1-(2-chloro-5-cyano-3-((7-cyano-4-(ethylamino)imidazo[2,1-f][1,2,4]triazin-2-yl)amino)phenyl)-4-((methoxycarbonyl)amino)piperidin-3-yl 4-aminobutanonate hydrochloride] belongs 5.05 nM.
To `CCNc1nc(Nc2cc(C#N)cc(N3CC[C@@H](NC(=O)OC)[C@H](OC(=O)[C@H](N)CC(N)=O)C3)c2Cl)nn2c(C#N)cnc12` [Example 818, (R)-(3R,4R)-1-(2-chloro-5-cyano-3-((7-cyano-4-(ethylamino)imidazo[2,1-f][1,2,4]triazin-2-yl)amino)phenyl)-4-((methoxycarbonyl)amino)piperidin-3-yl 2,4-diamino-4-oxobutanoate hydrochloride] belongs 2.49 nM; to `CCNc1nc(Nc2cc(C#N)cc(N3CC[C@@H](NC(=O)OC)[C@H](OC(=O)C[C@@H](N)CC(C)C)C3)c2Cl)nn2c(C#N)cnc12` [Example 819, (S)-(3R,4R)-1-(2-chloro-5-cyano-3-((7-cyano-4-(ethylamino)imidazo[2,1-f][1,2,4]triazin-2-yl)amino)phenyl)-4-((methoxycarbonyl)amino)piperidin-3-yl 3-amino-5-methylhexanoate hydrochloride], 5.81 nM.
The value for `CCNc1nc(Nc2cc(C#N)cc(N3CC[C@@H](NC(=O)OC)[C@H](OC(=O)C[C@H]4CC[C@H](N)CC4)C3)c2Cl)nn2c(C#N)cnc12` [Example 820, (3R,4R)-1-(2-chloro-5-cyano-3-((7-cyano-4-(ethylamino)imidazo[2,1-f][1,2,4]triazin-2-yl)amino)phenyl)-4-((methoxycarbonyl)amino)piperidin-3-yl 2-((1r,4R)-4-aminocyclohexyl)acetate hydrochloride] was 5.96 nM; that for `CCNc1nc(Nc2cc(C#N)cc(N3CC[C@@H](NC(=O)OC)[C@H](OC(=O)CNC(=O)[C@H](C)N)C3)c2Cl)nn2c(C#N)cnc12` [Example 821, (3R,4R)-1-(2-chloro-5-cyano-3-((7-cyano-4-(ethylamino)imidazo[2,1-f][1,2,4]triazin-2-yl)amino)phenyl)-4-((methoxycarbonyl)amino)piperidin-3-yl 2-((S)-2-aminopropanamido)acetate hydrochloride] was 2.72 nM.
For the compound `CCNc1nc(Nc2cc(C#N)cc(N3CC[C@@H](NC(=O)OC)[C@H](OC(=O)[C@@H](NC(=O)[C@@H](N)CCCCN)C(C)C)C3)c2Cl)nn2c(C#N)cnc12` [Example 822, (S)-(3R,4R)-1-(2-chloro-5-cyano-3-((7-cyano-4-(ethylamino)imidazo[2,1-f][1,2,4]triazin-2-yl)amino)phenyl)-4-((methoxycarbonyl)amino)piperidin-3-yl 2-((S)-2,6-diaminohexanamido)-3-methylbutanoate dihydrochloride], the IC50 was 1.74 nM.
The value for `CCNc1nc(Nc2cc(C#N)cc(N3CC[C@@H](NC(=O)OC)[C@H](OC(=O)[C@@H](NC(=O)[C@@H](N)CCCNC(=N)N)C(C)C)C3)c2Cl)nn2c(C#N)cnc12` [Example 823, (S)-(3R,4R)-1-(2-chloro-5-cyano-3-((7-cyano-4-(ethylamino)imidazo[2,1-f][1,2,4]triazin-2-yl)amino)phenyl)-4-((methoxycarbonyl)amino)piperidin-3-yl 2-((S)-2-amino-5-guanidinopentanamide)-3-methylbutanoate trihydrochloride] was 2 nM.
Consider `CCNc1nc(Nc2ccc3c(c2)c(C#N)cn3C2CCN([C@H]3COC[C@@H]3O)CC2)nn2c(C#N)cnc12` [Example 826, 2-((3-cyano-1-(1-((3S,4R)-4-hydroxytetrahydrofuran-3-yl)piperidin-4-yl)-1H-indol-5-yl)amino)-4-(ethylamino)imidazo[2,1-f][1,2,4]triazine-7-carbonitrile], for which the IC50 turned out to be 0.32 nM.
